How the values were obtained:
[1] = test system: HO-1, a clinical isolate of HSV-1 that is multiple drug resistant; assay: Viral yields of multiple drug resistant HSV-1 isolate HO-1, plaque assay; assay type: cell-based, Herpes Simplex Virus Type 1; conditions: 2% tranexamic acid, MOI 5, 24 hpi
rabbit skin cells = conditions: 48 h
HSV-1 = assay: Effect of 2% TA on HSV-1 DNA replication; assay type: cell-based, Herpes Simplex Virus Type 1; conditions: MOI 0.05 and 0.5
cold sores = assay: Topical tranexamic acid on cold sore outbreaks in human subjects; assay type: in vivo
HSV Strain 17syn+ = assay: Acyclovir escape mutants after 10 serial passages in rabbit skin cells; assay type: cell-based, Herpes Simplex Virus; conditions: 10 passages, 50 μM acyclovir alone or with 2% tranexamic acid; plated with 100 μM acyclovir vs. none

SMILES | effect on HO-1 viral yields [1] | CC50 (rabbit skin cells) [mM] | replication of HSV DNA (HSV-1) | time to resolution of cold sore outbreak symptoms (cold sores; 3% (w/v) topically several times a day, three human subjects) [h] | cold sore outbreaks during one year (usual 3 to 5) (cold sores; 3 to 10% (w/v) applied to face daily for approximately one year, one subject) | time to healing of cold sore (cold sores; 5% (w/v) aqueous solution, about 0.25 mL, 5 times, one subject) [h] | outcome of cold sore outbreak (cold sores; 10% (w/v) topically a single time, one subject) | Ratio of Acyclovir Resistant (ACVr) Virus (HSV Strain 17syn+)
NC[C@H]1CC[C@H](C(=O)O)CC1 [tranexamic acid] | effective | 320 | significantly reduces the replication of HSV DNA | ≤ 48 | one | ≤ 36 | the blister was gone and the outbreak had ceased | 
Nc1nc2c(ncn2COCCO)c(=O)[nH]1 [Acyclovir, acyclovir] |  |  |  |  |  |  |  | 0.0044
